Results from patent US8785499B2 (priority 2009, dated 2014).
≈ marks a conversion by molar mass, not a printed value.

Tests used:
[1] = target: T1, ecNadD (Escherichia coli (strain K12), UniProt P0A752); experiment: biochemical; conditions: apparent value
[2] = tested on: E. coli K-12 BW25113 (ΔnadA); experiment: microbe, parasite or virus in culture; format: cell-based, Escherichia coli; conditions: for MIC50: Escherichia coli, BW25113, read-out: MIC50 E. coli
[3] = tested on: E. coli ΔnadA, nadD+ (overexpressing NadD); experiment: Antibacterial assay: on-target versus off-target activity (NadD overexpression vs gapA control); format: cell-based, Escherichia coli; conditions: E. coli overexpressing nadD vs gapA control strain
[4] = tested on: B. anthracis sterne; experiment: microbe, parasite or virus in culture; format: cell-based; conditions: Bacillus anthracis, read-out: MIC50 B. anth
[5] = tested on: B. subtilis 168; experiment: microbe, parasite or virus in culture; format: cell-based; conditions: Bacillus subtilis, 168, read-out: MIC50 B. subt
[6] = target: baNadD (Bacillus anthracis, UniProt C3L5T6); experiment: biochemical; format: biochemical; conditions: for inhibition at 50 µM: read-out: INHIBITION (%) B. anthracis
Sequence of baNadD (C3L5T6 whole entry, looked up): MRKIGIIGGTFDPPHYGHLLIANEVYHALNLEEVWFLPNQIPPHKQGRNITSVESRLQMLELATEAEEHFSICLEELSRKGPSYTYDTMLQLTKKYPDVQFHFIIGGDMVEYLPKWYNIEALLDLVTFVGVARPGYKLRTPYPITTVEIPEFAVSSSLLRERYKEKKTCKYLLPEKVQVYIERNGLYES

[7] = target: T1, ecNadD; experiment: biochemical; format: biochemical

Row | SMILES | […]. anthracis [6] | […]. coli [7] | also measured
1 | O=C(CCC(=O)Nc1cccc(Cl)c1)N/N=C/c1c2ccccc2cc2ccccc12 [01_02] | – | – | Ki ([1]; substrate ATP varied, 0.5 mM NaMN fixed): 5 ± 1 µM; Ki ([1]; substrate NaMN varied, 0.5 mM ATP fixed): 8 ± 3 µM; MIC50 [2]: > 80 µM
2 | O=C(CCCC(=O)Nc1ccc(Br)cc1)N/N=C/c1c2ccccc2cc2ccccc12 [01_03] | – | – | effect of NadD overexpression on antibacterial activity (on-target vs off-target) [3]: partially or totally suppresses action; MIC50 [4]: 15 µM (≈ 7.33 µg/mL); MIC50 [5]: 10 µM (≈ 4.88 µg/mL); MIC50 [2]: > 80 µM
3 | Nc1c(C(=O)Nc2cccc(F)c2)sc2nc(-c3cccs3)ccc12 [03_02] | – | – | inhibition at 50 µM [6]: 100%; MIC50 [4]: 80 µM (≈ 29.6 µg/mL); MIC50 [5]: 40 µM (≈ 14.8 µg/mL); MIC50 [2]: 160 µM (≈ 59.1 µg/mL)
4 | Nc1c(C(=O)Nc2cc(Cl)ccc2Cl)sc2nc(-c3cccs3)ccc12 [03_05] | – | – | MIC50 [4]: 10 µM (≈ 4.2 µg/mL); MIC50 [5]: 10 µM (≈ 4.2 µg/mL); MIC50 [2]: 80 µM (≈ 33.6 µg/mL)
5 | Nc1c(C(=O)Nc2ccc(Cl)cc2F)sc2nc(-c3cccs3)ccc12 [03_15] | – | – | effect of NadD overexpression on antibacterial activity (on-target vs off-target) [3]: partially or totally suppresses action; MIC50 [4]: 10 µM (≈ 4.04 µg/mL); MIC50 [5]: 10 µM (≈ 4.04 µg/mL); MIC50 [2]: 160 µM (≈ 64.6 µg/mL)
6 | Nc1c(C(=O)Nc2cccc(Cl)c2)sc2nc(-c3ccncc3)ccc12 [03_17] | – | – | inhibition at 50 µM [6]: 64%; MIC50 [4]: > 160 µM; MIC50 [5]: > 160 µM; MIC50 [2]: 80 µM (≈ 30.5 µg/mL)
7 | Nc1c(C(=O)Nc2ccc(F)cc2Cl)sc2nc(-c3ccc(F)cc3)ccc12 [03_23] | – | – | MIC50 [4]: 80 µM (≈ 33.3 µg/mL); MIC50 [5]: 80 µM (≈ 33.3 µg/mL); antibacterial activity against E. coli (qualitative) [2]: relatively strong antibacterial activity; MIC50 [2]: 40 µM (≈ 16.6 µg/mL)
8 | COC(=O)c1ccc(N/C=C2\C(=O)Nc3ccccc32)cc1 [15_11] | – | – | MIC50 [5]: < 50 µM; MIC50 [2]: < 100 µM
9 | CSc1nc2nc(N)nc(N)c2s1 [compound 251] | 0% | 0% | –
10 | O=[N+]([O-])c1ccc2[nH]c(CCc3nc4cc([N+](=O)[O-])ccc4[nH]3)nc2c1 [compound 252] | 0% | 0% | –
11 | Nc1nc(-c2cc([N+](=O)[O-])cc([N+](=O)[O-])c2)n[nH]1 [compound 253] | 7% | 0% | –
12 | Nc1[nH][nH]c(=O)c1/N=N/c1ccccc1F [compound 254] | 0% | 0% | –
13 | OCC#CCSc1nnc(-c2cccc(Br)c2)o1 [compound 255] | 0% | 0% | –
14 | O=C(N/N=C/c1ccc(Br)cc1)c1[nH]ncc1Br [compound 256] | 0% | 0% | –
15 | COC(=O)c1ccc(NC(=O)CNc2ccc(C(=O)O)cc2)cc1 [compound 258] | 0% | 0% | –
16 | Cc1ccc(C2C(C#N)=C(N)Oc3ncnc(O)c32)cc1 (centres unmarked) [compound 259] | 0% | 0% | –
17 | O=C(NCCNc1ccc([N+](=O)[O-])cc1)c1ccccc1Br [compound 260] | 0% | 0% | –
18 | O=C(O)CC(NC(=O)OCc1ccccc1)c1ccccc1 (centres unmarked) [compound 261] | 24% | 0% | –
19 | Cc1nn(-c2ccc([N+](=O)[O-])cc2)c(Cl)c1S(=O)(=O)O [compound 262] | 5% | 0% | –
20 | Nc1nnc(SCC(=O)Nc2ccc(Cl)c(Cl)c2)s1 [compound 263] | 0% | 0% | –
21 | Cc1ccc([N+](=O)[O-])cc1NS(=O)(=O)c1ccc(F)cc1 [compound 264] | 0% | 0% | –
22 | Cc1noc(C)c1S(=O)(=O)Nc1ccc(Br)cc1 [compound 265] | 4% | 0% | –
23 | Cc1nnc(N/N=C/c2ccccc2C(=O)O)nc1O [compound 267] | 4% | 0% | –
24 | NC(N)=NS(=O)(=O)c1ccc(NC(=O)c2cccc([N+](=O)[O-])c2)cc1 [compound 268] | 0% | 0% | –
25 | NS(=O)(=O)c1cc(C(=O)OCC(=O)c2ccccc2)ccc1Cl [compound 269] | 22% | 0% | –
26 | O=C(O)c1ccc(CSCc2ccccc2)o1 [compound 270] | 21% | 0% | –

Row | SMILES | […]. anthracis [6] | […]. coli [7] | also measured
27 | COC(=O)CSc1nnc(-c2ccc(Cl)cc2Cl)o1 [compound 274] | 0% | 0% | –
28 | O=C(O)c1ccc(-c2ccc(C(=O)O)c(C(=O)O)c2)cc1C(=O)O [compound 275] | 0% | 0% | –
29 | O=C(O)c1ccc2nc(-c3ccc(O)cc3)sc2c1 [compound 277] | 0% | 0% | –
30 | Nc1nnnn1/N=C/c1ccccc1 [compound 278] | 0% | 0% | –
31 | O=C(Nc1ccc(Cl)cn1)c1cccnc1 [compound 279] | 0% | 0% | –
32 | O=C(Cn1cnc2ccccc2c1=O)Nc1cccc(C(=O)O)c1 [compound 280] | 0% | 0% | –
33 | CC(=O)c1ccc(NS(=O)(=O)c2ccc(N)cc2)cc1 [compound 283] | 0% | 0% | –
34 | O=S(=O)(Nc1nc2ccccc2s1)c1ccc(Cl)s1 [compound 284] | 7% | 0% | –
35 | Cn1c(SCC(N)=O)nnc1-c1ccc(Br)cc1 [compound 286] | 0% | 0% | –
36 | Nc1c(C(=O)Nc2ccc(F)c(F)c2)sc2nc(-c3ccncc3)ccc12 [compound 287] | 0% | 0% | –
37 | Nc1nc(-c2ccc(Cl)c([N+](=O)[O-])c2)n[nH]1 [compound 288] | 0% | 0% | –
38 | O=C(CNS(=O)(=O)c1ccc(Br)s1)NCCC1=CCCCC1 [compound 289] | 4% | 0% | –
39 | CC(=O)O/C(=C\c1cn(C(C)=O)c2ccccc12)C(=O)O [compound 291] | 0% | 0% | –
40 | O=S(=O)(N/N=C/c1cccc(OC2CSC2)c1)c1ccccc1 [compound 292] | 0% | 0% | –
41 | O=C(O)CSc1cccc(SCC(=O)O)c1 [compound 293] | 5% | 0% | –
42 | O=C(NCc1ccccn1)c1ccc(Cl)cc1Cl [compound 294] | 0% | 0% | –
43 | COc1ccc(-c2noc(COc3ccc(Cl)cc3Cl)n2)cc1 [compound 295] | 11% | 0% | –
44 | O=S(=O)(Nc1ccc(Cl)cc1)c1ccc(Cl)s1 [compound 297] | 0% | 0% | –
45 | CCn1c(CNc2ccc(F)cc2)nnc1SCC(N)=O [compound 298] | 0% | 0% | –
46 | COc1ccccc1OCc1nc(-c2ccc(Cl)cc2Cl)no1 [compound 299] | 1% | 0% | –
47 | CC(=O)NS(=O)(=O)c1ccc(/N=C2\C(=O)Nc3ccccc32)cc1 [compound 300] | 0% | 0% | –
48 | C=CCNC(=O)c1cc(-c2ccc(Br)cc2)on1 [compound 301] | 0% | 0% | –
49 | O=C(CCN1C(=O)c2ccccc2C1=O)NCc1ccncc1 [compound 302] | 0% | 0% | –
50 | Clc1ccc(CNc2nc[nH]n2)cc1 [compound 305] | 0% | 0% | –
51 | CSc1cccc(NS(=O)(=O)c2ccc(Cl)cc2)c1 [compound 306] | 0% | 0% | –
52 | O=S(=O)(NCCc1ccccc1)c1ccc(Br)s1 [compound 307] | 0% | 0% | –
